Article PMC12355554, “Development of novel mitochondrial pyruvate carrier inhibitors for breast cancer treatment” (The Journal of Biological Chemistry, 2025)
Like-named read-outs stand apart in the source and are kept apart here.

Legend:
[1] = target: T1, mitochondrial pyruvate carrier (MPC) (Mus musculus, UniProt P63030+Q9D023); assay: Seahorse XFe96 Pyr-driven respiration in rPFO-permeabilized 4T1 cells; format: cell-based, murine; settings: for effect on Pyr-driven respiration: Pyr/Mal, candidate compounds 1 μM
T1 construct: host or cells: 4T1 murine breast cancer cells, rPFO-permeabilized
T1 sequence (P63030 1-109): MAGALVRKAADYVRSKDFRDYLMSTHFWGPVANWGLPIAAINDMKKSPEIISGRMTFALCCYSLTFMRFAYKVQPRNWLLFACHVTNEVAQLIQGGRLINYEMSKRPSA
T1 sequence (Q9D023 1-127): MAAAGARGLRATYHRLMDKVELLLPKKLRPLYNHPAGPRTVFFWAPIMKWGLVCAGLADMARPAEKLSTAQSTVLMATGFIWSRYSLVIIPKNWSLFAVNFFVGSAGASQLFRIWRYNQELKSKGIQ
Experimental: After validating the ability of rPFO to permeabilize 4T1 cells without damaging mitochondria, we sought to investigate the ability of candidate compounds to inhibit Pyr-driven respiration in these cells (Fig. 1, D–G). In this regard, 4T1 cells were seeded in Seahorse XFe96 well plates and were incubated to reach confluence (∼18–24 h) in growth media (+serum). Growth media were then aspirated, and cells were washed with MAS buffer to remove serum and endogenous metabolic substrates. Serum- and substrate-starved cells were then incubated for equilibration in MAS buffer in a non-CO2 incubator. Inhibitors, rPFO, and substrate milieus were prepared in MAS buffer to be injected in succession to allow for real-time observation of the effects of compound-treated cultures on oxygen consumption rates (OCRs) when compared with vehicle (dimethyl sulfoxide [DMSO])-treated cells. Equilibrated intact cells were allowed to establish basal respiratory rates, followed by the injection of candidate compounds C1 to C4 at varying dose-titrated concentrations, respectively, and acute decreases in OCR were observed (Fig. 1, D–G). Compound exposure was performed in intact cells to avoid influence of rPFO on acute cellular targets. Cells were then exposed to rPFO, followed by the carbonyl cyanide-p-trifluoromethoxyphenylhydrazone (FCCP)–stimulated Pyr substrate milieu, which consisted of Pyr, malate (Mal), and dichloroacetate (DCA) to fuel uninhibited Pyr respiratory flux and maximal respiration. Mal and DCA were included to allow for continuous TCA cycle function without acetyl CoA feedback–mediated inhibition (Mal) or Pyr dehydrogenase–regulated inhibition (DCA) of Pyr uptake. Here, we observed a dose-dependent inhibition of Pyr-driven respiration in cells treated with the candidate compounds, allowing for logarithmic dose–response curves to be generated, and 50% inhibitory concentrations (IC50) to be calculated (Fig. 1, D–G). Finally, complex I and […] were injected to halt respiration and end the assay. […] In this regard, the fluoro-aminocarboxycoumarin derivative C4 has been designated as the lead candidate for further investigation.
(§1) Permeabilized cell assays were performed using rPFO as described previously. 4T1 cells were seeded (20,000 cells/well) onto Seahorse XFe96 well plates and incubated overnight in growth media at 37 °C and 5% CO2 for adherence. On the day of the assay, growth media were aspirated and replaced with MAS buffer (70 mM sucrose, 220 mM mannitol, 10 mM potassium phosphate monobasic, 5 mM magnesium chloride, 2 mM Hepes, and 1 mM EGTA) after 3X rinse of growth media to remove serum and endogenous metabolic substrates, and incubated at 37 °C in a non-CO2 incubator. Respective inhibitor and substrate milieu's were prepared in MAS buffer for port injections A–D at 8X, 9X, 10X, and 11X the target cell concentrations to account for intrinsic dilution factor of in situ injections of each port. […] Final substrate concentrations for specific tests were as follows: (5 mM Pyr , 0.5 mM Mal, 2 mM DCA; 10 mM glutamate, 0.5 mM Mal, 2 mM DCA; 10 mM succinate, 2 μM rotenone; 20 mM methyl Pyr, 5 mM Pyr, 0.5 mM Mal, and 2 mM DCA). ATP rate assays and mitochondrial stress tests were performed according to the manufacturer's (Agilent) instructions.

[2] = tested on: succinate-driven respiration in 4T1 cells; assay: Seahorse succinate-driven respiration in permeabilized 4T1 cells; format: cell-based, murine; settings: candidate compounds 1 μM
From the text: (§2) Although our initial experiments and previous literature illustrate the ability of the candidate compounds to inhibit Pyr-driven respiration, we sought to investigate the ability of candidate compounds to inhibit respiration fueled by other metabolic substrates, glutamate and succinate (Fig. 2). Glutamate, similar to Pyr oxidation, results in NADH equivalents that fuel complex I-mediated respiration, and succinate metabolism offers FADH2 for electrons in complex II-driven respiratory processes. […] To further validate the mode of action of the candidate compounds, a series of similar Seahorse experiments were employed (Fig. 2, A–C). In these experiments, 4T1 cells were first permeabilized and were then offered metabolic substrates Pyr (Pyr/Mal; Fig. 2A), glutamate (Glu/Mal, Fig. 2B), or succinate (Fig. 2C), and the resulting OCR was observed. As described previously, Mal and DCA were included in the substrate milieu of glutamate respiration experiments. […] To validate that inhibition of Pyr respiration is due to mitochondrial Pyr uptake and not other Pyr-processing enzymes (i.e., Pyr dehydrogenase), a parallel experiment using methyl pyruvate (MePyr) was employed (Fig. 2, E and F). MePyr is permeable to the mitochondrial membranes, where in the matrix, mitochondrial esterase hydrolysis activity provides Pyr.
as §1

[3] = tested on: glutamate-driven respiration in 4T1 cells; assay: Seahorse glutamate-driven respiration in permeabilized 4T1 cells; format: cell-based, murine; settings: Glu/Mal, candidate compounds 1 μM
From the text: as §2, §1

[4] = target: T1, mitochondrial pyruvate carrier (MPC); assay: Michaelis-Menten kinetics of mitochondrial pyruvate uptake (Seahorse OCR); format: cell-based, murine; settings: permeabilized 4T1 cells; 10 nM inhibitor
Experimental: To further investigate the type of inhibition, we employed Michaelis–Menten experiments in modified Seahorse XFe96–based assays similar to described previously, and based on the model that Pyr uptake is directly coupled to NADH oxidation and oxygen consumption (Fig. 3A). In these experiments, 4T1 cells were permeabilized and were then administered varying concentrations of Pyr in the presence or the absence of 10 nM C3 or C4, respectively (Fig. 3, B–F). A rise in OCR indicated Pyr-driven respiration, where subsequent addition of FCCP stimulated maximal respiration, and substrate-dependent increases in OCR were observed and normalized to protein content (Fig. 3, B–F). In this regard, Michaelis–Menten curves were generated using the FCCP-stimulated OCR in C3- or C4-treated and -untreated cells where Michaelis–Menten parameters of maximal velocity (Vmax) and half-maximal substrate concentrations (Km) were calculated (Fig. 3, E–G). Michaelis–Menten assumptions include direct and irreversible substrate and carrier interaction that results in the OCRs and is analogous to standard enzymatic Michaelis–Menten models (Fig. 3A). […] Thus, C3 decreased the Vmax and increased the Km, not consistent with competitive inhibition where high substrate concentrations titrate out the inhibitor to reach intrinsic Vmax values. However, potential covalent bonding of inhibitor may limit the ability of Pyr to displace C3 from the active site, resulting in the observed “mixed” mode of inhibition.

[5] = Intrinsic CL in human liver microsomes; format: in vitro ADME; settings: human, liver microsomes; exceeding the experimental endpoints
[6] = target: T1, mitochondrial pyruvate carrier (MPC); assay: Methyl pyruvate reversal of inhibited Pyr-driven respiration; format: cell-based, murine; settings: permeabilized 4T1 cells; 20 mM methyl Pyr
From the text: as §2
Permeabilized cell assays were performed using rPFO as described previously. […]

[7] = read-out: IC50, inhibition of Pyr-driven respiration
[8] = average ± SEM, read-out: IC50, inhibition of Pyr-driven respiration (Fig. 1G, unit inferred)

Compound	IC50 [1, 7] [nM]	effect on Pyr-driven respiration [1]	IC50 [1, 8] [nM]	effect on succinate-driven respiration [2]	effect on glutamate-driven respiration [3]	Vmax of Pyr-driven FCCP-stimulated OCR [4] [pmol/min]	mode of inhibition [4]	half-life [5] [h]	reversal of Pyr-driven respiration effects by methyl pyruvate [6]
O=C(O)c1cc2ccc(N(c3ccc(F)cc3)c3ccc(F)cc3)cc2oc1=O [C1, 7-(bis(4-fluorophenyl)amino)-2-oxo-2H-chromene-3-carboxylic acid]	> 1000								
CN(c1ccc(F)cc1)c1ccc2cc(C(=O)O)c(=O)oc2c1 [C2, 7-((4-fluorophenyl)(methyl)amino)-2-oxo-2H-chromene-3-carboxylic acid]	147	specifically inhibits	148 ± 8.9	without substantial effects	without substantial effects				
CN(Cc1ccccc1)c1ccc2cc(C(=O)O)c(=O)oc2c1 [C3, 7-(benzyl(methyl)amino)-2-oxo-2H-chromene-3-carboxylic acid]	18	specifically inhibits	18.3 ± 0.8	without substantial effects	without substantial effects	10.8	mixed	> 2	completely reversed
CN(Cc1ccc(F)cc1)c1ccc2cc(C(=O)O)c(=O)oc2c1 [C4, 7-((4-fluorobenzyl)(methyl)amino)-2-oxo-2H-chromene-3-carboxylic acid]	16	specifically inhibits	16.6 ± 4.8	without substantial effects	without substantial effects		competitive		
